Data taken from article PMC6562865, “Vitis vinifera L. Leaf Extract Inhibits In Vitro Mediators of Inflammation and Oxidative Stress Involved in Inflammatory-Based Skin Diseases” (Antioxidants, 2019).
Read-outs that look alike come from different tables or passages of the source.

Assays:
IL-8 = IL-8 release in HaCaT cells (ELISA); assay type: cell-based, human; conditions: for IL-8 release induced by TNF-α, pure compounds: 0.1–100 μM, up to the maximum concentration tested (100 μM)
Method: Cells were grown in 24-well plates for 48 h (30,000 cells per well) before the cytokine treatment. IL-8 was quantified using a Human Interleukin-8 ELISA Development Kit as previously described. Preliminary time-course experiments were performed to set the best conditions for further experiments. HaCaT were treated with TNF-α (10 ng/mL), LPS (5 μg/mL), or H2O2 (100 μM), for 3, 6, 24, and 30 h. The IL-8 secretion induced by TNF-α or LPS was tested after 6 h of treatment, while the 24-h time point was chosen for H2O2. Epigallocatechin-3-gallate (EGCG) (20 μM) was used as the reference inhibitor of IL-8 secretion.
(§1) HaCaT cells were grown in 24-well plates for 48 h (30,000 cells per well), washed with phosphate-buffered saline (PBS), and exposed to UVB (40 mJ/cm^2) light source (Triwood 31/36, W36, V230, Helios Italquartz, Milano, Italy) in a glass bath. Radiation time (about 50 s) was adjusted for each experimental day, measuring energy emission by the LP 471 UVB probe (Delta OHM, Padova, Italy). After radiation, serum free fresh culture medium was immediately added. For the evaluation of IL-8 release, cells were treated for additional 9 h, a time point selected in preliminary time-course experiments. For NF-κB (p65) translocation, HaCaT cells were treated for 1 h after UVB radiation. EGCG (20 μM) was used as reference inhibitor.

[1] = In vitro skin permeation study, Franz diffusion cell method; assay type: in vitro ADME, human; conditions: for recovery: human
Description: VVWE was characterized by a validated HPLC-DAD method as previously described. Briefly, two different HPLC methods coupled with a Diode Array Detector (DAD) have been used, the first for anthocyanin detection at 520 nm by the use of a Synergi 4u MAX-RP 80 Å column (250 × 4.60 mm × 4 μm) (Phenomenex, Torrance, CA, USA) and the second for flavonols and caffeic acid derivative detection at 360 nm by Synergi 4u MAX-RP 80 Å column (250 × 2 mm × 4 μm) (Phenomenex, Torrance, CA, USA). The anthocyanins standards, hyperoside and kaempferol-3-O-glucoside, were from Extrasynthese (Genay, France); all the other standards and solvents were bought from Sigma-Aldrich (St. Louis, MO, USA).
The human epidermis membrane used for in vitro permeation studies was obtained from the abdominal skin of a single donor. The epidermis was prepared according to the heat separation method, as previously reported.
Ex vivo skin permeation study: the study was performed using the Franz diffusion cell method. The human epidermis was mounted carefully on the receiver compartment of the Franz’s cell with the stratum corneum side in contact with donor solution. The receiver compartment was filled with freshly prepared degassed HCl 0.1 M solution (receiver phase). VVWE (150 mg) solubilized in 0.1 M HCl:EtOH (50:50, v/v) was loaded in the donor compartment (0.5 mL). At predetermined intervals (1, 5, 7, 24, 32, 48 h), 0.2-mL samples were removed from the receiver compartment and immediately replaced with fresh receiver phase. Sink conditions were maintained throughout the experiment. The samples were assayed by HPLC analysis. Four parallel experiments were performed.

NF-κB = assay: NF-κB-driven transcription, NF-κB-LUC transient transfection luciferase assay in HaCaT cells; assay type: cell-based, human; conditions: transfected HaCaT, 6 h, 20 μM
Method: (§2) HaCaT cells were plated in 24-well plates and transiently transfected with the plasmid NF-κB-LUC or native IL-8-LUC, both at 250 ng per well, using Lipofectamine® 2000, according to previous studies. Sixteen hours later, the cells were treated for 6 h with increasing concentrations of VVWE in the presence of the pro-inflammatory mediators (TNF-α at 10 ng/mL or LPS at 5 μg/mL). After six hours, cells were harvested and the luciferase assay was performed using the BriteliteTM Plus reagent (PerkinElmer Inc., Massachusetts, USA) according to the manufacturer’s instructions. Data were expressed considering 100% of the luciferase activity related to the cytokine-induced promoter activity.

IL-8 promoter = IL-8 promoter activity, IL-8-LUC transient transfection luciferase assay in HaCaT cells; assay type: cell-based, human; conditions: transfected HaCaT, 6 h, 20 μM
Method: as §2

NF-κB (p65) = NF-κB (p65) nuclear translocation in HaCaT cells; assay type: cell-based, human; conditions: 20 μM
Method: For the evaluation of the NF-κB (p65) translocation, HaCaT were plated at the concentration of 3 × 10^6 cells/mL in 100-mm plates with fresh complete medium. After 48 h, cells were treated for 1 h with the inflammatory mediators (TNF-α at 10 ng/mL or LPS at 5 μg/mL) and the extract (10–50 μg/mL) under study, using FBS-free medium. Nuclear extracts were prepared using the Nuclear Extraction Kit from the Cayman Chemical Company (Ann Arbor, MI, USA) as previously described.
Data were expressed considering 100% of the absorbance related to the cytokine-induced NF-κB nuclear translocation. EGCG (20 μM) was used as the reference inhibitor of the NF-κB nuclear translocation. The results are the mean ± SD of three experiments in triplicate.
as §1

VEGF = VEGF release in HaCaT cells (ELISA); assay type: cell-based, human; conditions: 20 μM
Method: Cells were grown in 24-well plates for 48 h (30,000 cells per well) before challenge with the pro-inflammatory mediator. VEGF was quantified by the Human VEGF ELISA Development Kit. Briefly, Corning 96-well EIA/RIA plates (Sigma-Aldrich, Milan, Italy) were coated with the antibody provided in the ELISA Kit (PeproTech Inc., London, UK) overnight at 4 °C. After blocking the reaction, 300 μL of samples were transferred into wells at room temperature for 2 h. The amount of VEGF in the samples was detected by spectroscopy (signal read: 450 nm, 0.1 s) as described above. The quantitative measurement of VEGF was done using an optimized standard curve supplied with the ELISA set (100–2000 pg/mL). […] EGCG (20 μM) was used as the reference inhibitor of VEGF secretion.

MMP-9 = MMP-9 release in HaCaT cells (ELISA); assay type: cell-based, human; conditions: 20 μM
Method: MMP-9 secretion was performed on HaCaT cells treated with TNF-α (10 ng/mL) and (LPS 5 μg/mL) for 3, 6, 24, and 48 h. Cells were grown in 24-well plates (30,000 cell/well) for 48 h, before the treatment. Human MMP-9 ELISA Kit from RayBio® (Norcross GA, USA) was used to quantify MMP-9 secretion according to manufacturer’s instructions. 300 μL of samples in duplicate were transferred into a 96-well plate coated with anti-human MMP-9 and incubated overnight at 4 °C with gentle shaking. MMP-9 secreted was detected by the use of biotinylated and streptavidin–horseradish peroxidase (HRP) conjugate antibodies as previously described. The quantitative measurement of MMP-9 was done using an optimized standard curve supplied with the ELISA kit (8.23–6000 pg/mL). The MMP-9 secretion reached the maximum at 24 h for both TNF-α and LPS. VVWE was tested at 10–50 μg/mL in the presence of stimuli and between 2.5–200 μg/mL without the pro-inflammatory mediators.

[2] = human epidermis, Franz cell, 150 mg VVWE, four replicates, read-out: Permeated Amount (% Recovery) (converted)
[3] = human epidermis, Franz cell, 150 mg VVWE, four replicates, read-out: Retained Amount in the Epidermidis (% Recovery) (converted)
[4] = µg per g VVWE, human epidermis, Franz cell, 150 mg VVWE
[5] = µg per g VVWE, human epidermis, Franz cell, 150 mg VVWE, 48 h, receiver phase
[6] = human epidermis, Franz cell, 150 mg VVWE, four replicates

| Retained Amount in the Epidermidis ± SD [1, 4] [µg/g] | Permeated Amount ± SD [1, 5] [µg/g] | Permeated Amount (% Recovery) [1, 6] [%] | Retained Amount in the Epidermidis (% Recovery) [1, 6] [%] | Molecule | recovery [1, 2] [%] | recovery [1, 3] [%] | other results |
| --- | --- | --- | --- | --- | --- | --- | --- |
| 13.58 ± 15.88 | 8.74 ± 9.50 |  |  | O=c1c(O[C@@H]2O[C@H](CO)[C@@H](O)[C@H](O)[C@H]2O)c(-c2ccc(O)c(O)c2)oc2cc(O)cc(O)c12 [Quercetin 3-O-glucoside] | 0.04 | 0.063 | IL-8 release induced by TNF-α, pure compounds (IL-8): failed to reduce IL-8 release; Permeated Amount ± SD ([1]; µg per g VVWE, human epidermis, Franz cell, 150 mg VVWE, 48 h, receiver phase, listed as quercetin 3-O-glucoside): 8.74 µg/g; Retained Amount in the Epidermidis ± SD ([1]; µg per g VVWE, human epidermis, Franz cell, 150 mg VVWE, listed as quercetin 3-O-glucoside): 13.58 µg/g |
| 0.58 ± 1.17 | 2.17 ± 2.72 | 0.114 | 0.030 | COc1cc(-c2[o+]c3cc(O)cc(O)c3cc2O[C@@H]2O[C@H](CO)[C@@H](O)[C@H](O)[C@H]2O)ccc1O [Peonidin 3-O-glucoside] |  |  |  |
| 0.30 ± 0.60 | 1.63 ± 2.08 | 0.071 | 0.013 | OC[C@H]1O[C@@H](Oc2cc3c(O)cc(O)cc3[o+]c2-c2ccc(O)c(O)c2)[C@H](O)[C@@H](O)[C@@H]1O [Cyanidin 3-O-glucoside] |  |  |  |
|  |  |  |  | Epigallocatechin-3-gallate [EGCG] |  |  | inhibition of LPS-induced IL-8 secretion (IL-8; LPS 5 μg/mL, 6 h, 20 μM): 84.9%; inhibition of TNF-α-induced IL-8 secretion (IL-8; TNF-α 10 ng/mL, 6 h, 20 μM): 62.1%; inhibition of UVB-induced IL-8 secretion (IL-8; UVB 40 mJ/cm^2, 9 h, 20 μM): 61.7%; inhibition of LPS-induced NF-κB-driven transcription (NF-κB; LPS 5 μg/mL): 29.9%; inhibition of TNF-α-induced NF-κB-driven transcription (NF-κB; TNF-α 10 ng/mL): 59.9%; inhibition of LPS-induced IL-8 promoter activity (IL-8 promoter; LPS 5 μg/mL): 33.3%; inhibition of TNF-α-induced IL-8 promoter activity (IL-8 promoter; TNF-α 10 ng/mL): 35.9%; inhibition of LPS-induced NF-κB nuclear translocation (NF-κB (p65); LPS 5 μg/mL, 1 h): 53.2%; inhibition of TNF-α-induced NF-κB nuclear translocation (NF-κB (p65); TNF-α 10 ng/mL, 1 h): 62.4%; inhibition of UVB-induced NF-κB nuclear translocation (NF-κB (p65); UVB 40 mJ/cm^2, 1 h): 39.1%; inhibition of H2O2-induced VEGF secretion (VEGF; H2O2 100 μM, 24 h): 100%; inhibition of LPS-induced VEGF secretion (VEGF; LPS 5 μg/mL, 30 h): 100%; inhibition of TNF-α-induced VEGF secretion (VEGF; TNF-α 10 ng/mL, 24 h): 78.7%; inhibition of LPS-induced MMP-9 secretion (MMP-9; LPS 5 μg/mL, 30 h): no inhibition; inhibition of TNF-α-induced MMP-9 secretion (MMP-9; TNF-α 10 ng/mL, 24 h): 38.0% |
|  |  |  |  | O=C(O)[C@H]1O[C@@H](Oc2c(-c3ccc(O)c(O)c3)oc3cc(O)cc(O)c3c2=O)[C@H](O)[C@@H](O)[C@@H]1O [Quercetin 3-O-glucuronide] |  |  | IL-8 release induced by TNF-α, pure compounds (IL-8): failed to reduce IL-8 release; Permeated Amount (% Recovery) [1]: 0.177% |
| 3.53 ± 3.90 | 2.09 ± 1.70 | 0.055 | 0.094 | O=c1c(O[C@@H]2O[C@H](CO)[C@@H](O)[C@H](O)[C@H]2O)c(-c2ccc(O)cc2)oc2cc(O)cc(O)c12 [Kaempferol 3-O-glucoside] |  |  |  |
| 10.20 ± 9.00 | 47.59 ± 27.64 |  |  | O=C(/C=C/c1ccc(O)c(O)c1)O[C@@H](C(=O)O)[C@@H](O)C(=O)O [Caftaric acid] | 0.476 | 0.102 | IL-8 release induced by TNF-α, pure compounds (IL-8): failed to reduce IL-8 release; Permeated Amount ± SD ([1]; µg per g VVWE, human epidermis, Franz cell, 150 mg VVWE, 48 h, receiver phase, listed as caftaric acid): 47.59 µg/g; Retained Amount in the Epidermidis ± SD ([1]; µg per g VVWE, human epidermis, Franz cell, 150 mg VVWE, listed as caftaric acid): 10.20 µg/g |
|  |  |  |  | COc1cc(-c2[o+]c3cc(O)cc(O)c3cc2O[C@@H]2O[C@H](CO)[C@@H](O)[C@H](O)[C@H]2O)cc(O)c1O [Petunidin 3-O-glucoside] |  |  | Permeated Amount (% Recovery) [1]: 0.058%; Permeated Amount ± SD [1]: 0.38 ± 0.53 µg/g |

| Molecule | Retained Amount in the Epidermidis ± SD [1, 4] [µg/g] | Permeated Amount ± SD [1, 5] [µg/g] | Permeated Amount (% Recovery) [1, 6] [%] | Retained Amount in the Epidermidis (% Recovery) [1, 6] [%] | recovery [1, 2] [%] | recovery [1, 3] [%] | other results |
| --- | --- | --- | --- | --- | --- | --- | --- |
| C[C@@H]1O[C@@H](OC[C@H]2O[C@@H](Oc3c(-c4ccc(O)c(O)c4)oc4cc(O)cc(O)c4c3=O)[C@H](O)[C@@H](O)[C@@H]2O)[C@H](O)[C@H](O)[C@H]1O [Rutin] | 0.80 ± 0.91 | 0.30 ± 0.35 |  |  | 0.023 | 0.061 |  |
| OC[C@H]1O[C@@H](Oc2cc3c(O)cc(O)cc3[o+]c2-c2cc(O)c(O)c(O)c2)[C@H](O)[C@@H](O)[C@@H]1O [Delphinidin 3-O-glucoside] | 0.04 ± 0.08 | 0.48 ± 0.68 | 0.050 | 0.004 |  |  |  |
| COc1cc(-c2[o+]c3cc(O)cc(O)c3cc2O[C@@H]2O[C@H](CO)[C@@H](O)[C@H](O)[C@H]2O)cc(OC)c1O [Malvidin 3-O-glucoside] | 0.29 ± 0.58 | 0.92 ± 1.22 | 0.072 | 0.023 |  |  |  |
| O=c1c(O[C@@H]2O[C@H](CO)[C@H](O)[C@H](O)[C@H]2O)c(-c2ccc(O)c(O)c2)oc2cc(O)cc(O)c12 [Hyperoside] | 1.34 ± 1.43 | 0.47 ± 0.68 |  |  | 0.02 | 0.058 |  |
